Test results published in patent US10894948B2, “Resetting pluripotent stem cells” (CAMBRIDGE ENTERPRISE LIMITED, priority 2014, dated 2021).
Entries after “also recorded” stand apart in the source; their conditions may differ.

Experiments:
reset cells [1] = assay: Colony forming assay (alkaline phosphatase staining) in t2iL+Gö; type: cell-based, human; conditions: transgene-free reset cells in t2iL+Gö plus inhibitor, without ROCKi
Method: E. Colony forming assay. Cells maintained in t2iL+Gö were seeded without ROCKi at 2000 cells/well in 12 well dishes in t2iL+Gö plus FGF receptor inhibitor PD17 or TGF-β/activin receptor inhibitor A83-01. Colonies were stained for alkaline phosphatase after 7 days.
G. Colony forming assays on transgene-free reset cells. Cells maintained in t2iL+Gö were seeded at 2000 cells/well in […] in t2iL+Gö plus FGF receptor inhibitor PD17 or TGF-b/activin receptor inhibitor A83-01 and without ROCKi. Colonies were stained for alkaline phosphatase after 7 days.
Reset H9 cells maintained in t2iL+Gö were seeded without ROCKi at 2000 cells/well in 12 well dishes in t2iL+Gö. FGF receptor inhibitor PD173074 or TGF-β/activin receptor inhibitor A83-01 were added. Colonies were stained for alkaline phosphatase after 7 days.
Colony forming assays were carried out on MEF feeder cells by plating 1000 cells per well in 24-well plates, 2000 cells for 12-well plates and 5000 cells for 6-well plates. ROCKi was used for conventional but not reset cells. Activin/TGF β receptor inhibitor A83-01 was used at 0.25 μM where indicated. Plates were fixed and stained for alkaline phosphatase (Sigma-Aldrich, cat. 86R-1KT). Plates were scanned using a CellCelector (Aviso) or cellSens Dimension (Olympus).

reset cells [2] = assay: Expansion of reset cells in different CH concentrations; type: cell-based, human
Method: C. Expansion of reset cells in different CH concentrations. Cells were plated at 5×10^4 cells per well and cultured for 4 days in PD03 (1 μM) with LIF, and 0, 1, or 3 μM CH. Y axis indicates cell number (×10^4).
Moderating GSK3 inhibition improves self-renewal of rat ES cells (Chen et al., 2013a; Meek et al., 2013) and we have also observed that combination of Gö6983 with the GSK3 inhibitor CH is unfavourable for mouse ESC propagation (J. Wray and A S, unpublished). We therefore titrated CH. […] Henceforth cells were maintained in titrated 2i with LIF and Gö6983 (t2iL+Gö).

H9 and Shef6 cells = assay: Resetting by transient transfection with NANOG and KLF2 plasmids; type: cell-based, human; conditions: pilot experiments
Source text: For transient expression and resetting we first generated H9 and Shef6 cells with an EOS-GFP/puro^R reporter (Hotta et al., 2009) introduced in a piggyBac vector. We have observed that in the PB rather than lentiviral vector context this reporter is initially expressed heterogeneously in conventional PSC and progressively silenced, but is re-expressed during resetting. We used NANOG and KLF2 expression constructs driven by the CAG promoter harbouring a blasticidin resistance gene. One well of a 6-well plate was transfected as above with 3 μg of non-linearised NANOG and KLF2 plasmids. Two days later, medium was switched to N2B27 with PD173074 (PD17, 0.5 μM), PD03 (0.5 μM) and hLIF. At day 4, cells were retransfected and on day 8 medium was changed to t2iL+Gö. Puromycin selection (0.5 μg/ml) was applied from day 12 onwards for two passages. Single colonies were picked on passage 4 or 5. […]
We investigated the timespan for resetting by inducing NANOG/KLF2 expression with DOX for finite intervals then assaying colony formation in t2iL+Gö. […] These were indistinguishable in morphology from cultures in which transgenes […] or from reset cells generated previously with inducible transgenes. qRT-PCR and immunostaining confirmed sustained expression of ground state pluripotency factors (FIG. 7E, F). […]

[3] = tested on: reset cells and conventional PSC; assay: Oxygen consumption rate (SeaHorse extracellular flux); type: cell-based, human; conditions: injected during assay
Method: A. Oxygen consumption rate (OCR). Measurements obtained using a SeaHorse Extracellular Flux analyser.
Oxygen consumption was measured using an XF^e24 Analyzer (SeaHorse Bioscience) according to the manufacturer's protocol. In brief, SeaHorse plates were pre-treated by coating with laminin and 80,000 cells were seeded on each well the night before the experiment. Culture media were exchanged for XF Base Medium (SeaHorse bioscience) supplemented with 2 mM pyruvate and 20 mM glucose with an adjusted pH of 7.4 and cells incubated at 37° C. in atmospheric CO2 for one hour. Oligomycin (2 μM), FCCP ([…]), Antimycin (1 μM) and Rotenone (1 μM) were injected during assay (XF cell mito stress test kit, Seahorse Bioscience). Mitochondria were stained with Mito Tracker Green FM (final concentration 50 nM, Life Technologies) or Tetramethylrhodamine, ethyl ester (TMRE, final concentration 20 nM, Life Technologies) in the relevant medium for 10 minutes and analysed by confocal microscopy.

reset cells [4] = assay: Feeder-free culture of reset cells on Matrigel or Laminin 511-E8; type: cell-based, human; conditions: Gö reduced to 2 μM, ROCKi added prior to passaging
Method: For feeder-free culture plates were coated overnight at 4° C. with either diluted BD Matrigel hES-qualified Matrix (1:30) or Laminin 511-E8 (iMatrix-511; Nippi) at […] (Nakagawa et al., 2014). Cells were dissociated in the presence of ROCKi and plated in t2iL with Gö reduced to 2 μM.
Based on observations with mouse ESC we realised that Gö concentration was critical without buffering by feeders. We therefore reduced Gö to 2 μM and also added ROCKi prior to passaging. […] On both substrates cells could be expanded, albeit more slowly on laminin, and ground state pluripotency factor expression was retained over several passages (FIG. 1L).

reset H9 cells = assay: Propagation of reset cells in 2iL upon DOX withdrawal; type: cell-based, human; conditions: 5 μM added to 2iL upon DOX withdrawal
Method: B. PKC inhibitor Gö6983 maintains the reset state in the absence of transgene expression. Upon DOX withdrawal cells in 2iL degenerated. […] Note that intrinsic fluorescence of Gö produces a faint red background signal.
To induce resetting, transfected PSC were dissociated with trypsin and replated as single cells in the presence of ROCK inhibitor. Doxycycline (DOX, 1 μM) was added the next day and 24 h later medium was changed to N2B27 medium (Ndiff227, StemCells Inc., SCS-SF-NB-02) with 1 μM PD0325901 (PD03), human LIF (prepared in-house), DOX and either 3 μM CHIR99021 (2iL+DOX) or 1 μM CHIR99021 (t2iL+DOX). Medium was changed every day. Cells were split every five to seven days after dissociation to single cells with Accutase (Life Technologies) for 10 minutes. Around two weeks after DOX induction, cells were transferred to t2iL+5 μM PKC inhibitor Gö6983 (Sigma-Aldrich) (t2iL+Gö). Reset cells cultured in t2iL+Gö were also passaged every five to seven days as single cells. Cells transferred to t2iL+Gö proliferate slowly for the initial couple of passages after withdrawal of DOX. Cells were maintained on MEF feeders throughout.
These cultures expressed OCT4 (FIG. 8) and expanded continuously, although proliferation was reduced and morphology less consistent compared to DOX-maintained cells.

reset iH9-EOS cells = assay: Culture of reset cells in t2iL with Ro-31-8425 replacing Gö6983; type: cell-based, human; conditions: 0.1 μM in t2iL, 25 days (7 passages)
Method: FIG. 41 Bright field and fluorescence images of reset iH9-EOS cells after culture for 25 days (7 passages) in […] with Ro-31-8425 (0.1 μM) replacing Gö6983.

[5] = tested on: Human ES cells Shef6 and H9, which carry the EOS reporter; assay: Resetting without transgenes, EOS-GFP reporter (FACS, colonies); type: cell-based
Method: PDL-HDACi comprises mTeSR™-E6 basal medium (Stem Cell Technologies) supplemented with 1 μM PD0325901, human LIF (10 ng/ml, prepared in house) and a
HDAC inhibitor such as valproic acid sodium salt (VPC, 0.5-1 mM, Sigma,) or sodium butyrate (SB, 0.5-1 mM, Sigma).
Optionally a Wnt pathway inhibitor such as XAV939 (2 μM) may be included, constituting PDXL.
Human ES cells Shef6 and H9, which carry the EOS reporter [Hotta], were plated at a density of 50,000 to 100,000 cells per well of a six well tissue culture dish in KSR/FGF medium supplemented with 10 μM ROCK inhibitor (Y-27632). The day after medium was replaced with resetting medium (PDL-HDACi or PDXL-HDACi) for the following three days. Thereafter the cells were maintained in naïve maintenance medium, T2ilGö-FROCKi (FIG. 30).
EOS reporter contains a GFPIresPuro cassette driven by LTR of early transposon and a trimer of mouse Oct4 distal enhancer. The EOS reporter in majority of conventional human ES cells is expressed at low to undetectable level by microscope. More than 80 percent of cells do show low to moderate GFP expression by flow cytometry analysis (FACS) (FIG. 31). The resetting medium induced vast cell death and differentiation three days after. The dome shaped GFP positive colonies appears around Day5 to Day7 and peaked after day10 to day 12 (FIG. 32, FIG. 33, FIG. 34). The colonies can then be passaged in bulk or picked singly using TrypLE™ express. Puromycin selection is applied for one or two passages to exclude differentiated cells if needed. The reset cells expressed elevated naïve state markers, TFCP2L1 and DPPA3 from Day7 during resetting (FIG. 35). Two pools, iS6-N and iS6-E, have been maintained over 15 passages and are karyotypically normal by G-band analysis. They form embryoid body readily in low adhesive 96 well plates and up-regulate differentiation markers (FIG. 36).

SMILES: Cc1cccc(-c2nn(C(=S)Nc3ccccc3)cc2-c2ccnc3ccccc23)n1 [A83-01]
- proliferation without differentiation (reset cells [1]): continued to proliferate without differentiation

SMILES: Cc1c[nH]c(-c2cnc(NCCNc3ccc(C#N)cn3)nc2-c2ccc(Cl)cc2Cl)n1 [CH]
- growth rate and colony morphology (reset cells [2]; 1 μM CH, with PD03 (1 μM), LIF and Gö6983): restored growth rate while maintaining morphology
- growth rate and colony morphology (reset cells [2]; complete absence of CH): colony morphology improved in the complete absence of CH, but growth rate was reduced
- effect on the resetting process (H9 and Shef6 cells): appeared inhibitory to the resetting process

SMILES: N#CC(C#N)=NNc1ccc(OC(F)(F)F)cc1 [FCCP]
- oxygen consumption rate (OCR), reset cells versus conventional PSC [3]: greater OCR increase in reset cells than conventional PSC

SMILES: COc1ccc2c(c1)c(C1=C(c3c[nH]c4ccccc34)C(=O)NC1=O)cn2CCCN(C)C [Gö6983, 3-[1-[3-(dimethylamino)propyl]-5-methoxy-1H-indol-3-yl]-4-(1H-indol-3-yl)-1H-pyrrole-2,5-dione]
- undifferentiated colony formation without feeders (reset cells [4]): could form undifferentiated colonies on Matrigel or laminin 511-E8
- maintenance of the reset state in the absence of transgene expression (reset H9 cells): maintained cell proliferation and compact colony morphology; also recorded: allowed maintenance of compact refractile colonies without Venus expression

SMILES: CCN(CC)CCCCNc1ncc2cc(-c3cc(OC)cc(OC)c3)c(NC(=O)NC(C)(C)C)nc2n1 [PD17]
- effect on the resetting process (H9 and Shef6 cells): might favour resetting

SMILES: Cn1cc(C2=C(c3c4n(c5ccccc35)CCC(CN)C4)C(=O)NC2=O)c2ccccc21 (stereo not shown) [Ro-31-8425]
- use as alternative PKC inhibitor for culture of reset cells (reset iH9-EOS cells): can be used as an alternative to Gö6983

SMILES: CCCC(=O)[O-].[Na+] [Sodium butyrate, sodium butyrate]
- resetting induction (GFP expression by FACS) ([5]; 7 days after resetting): potent resetting inducer

SMILES: CCCC(CCC)C(=O)[O-].[Na+] [VPC, valproic acid sodium salt]
- resetting efficiency (GFP expression by FACS) ([5]; three days VPC treatment, 7 days after resetting, increase from around 1%): ~3%

SMILES: Oc1nc(-c2ccc(C(F)(F)F)cc2)nc2c1CSCC2 [XAV939]
- colony yield / resetting efficiency ([5]; 2 μM in transgene-free resetting medium (PDXL)): colony yield may be higher for some cell lines but colonies are also more heterogeneous; also recorded: could significantly increase resetting efficiency

SMILES: CC[C@H]1/C=C/C=C/C[C@@H](C)[C@H](O)[C@@](C)(O)C(=O)[C@@H](C)[C@H](O)[C@@H](C)C(=O)[C@@H](C)[C@H](O)[C@@H](C)/C=C/C(=O)O[C@@H]2[C@H](C)[C@H](CC1)O[C@]1(CC[C@H](C)[C@H](C[C@@H](C)O)O1)[C@H]2C [oligomycin]
- oxygen consumption rate (OCR), reset cells versus conventional PSC [3]: difference was minimised
